# Source: the OPERA property sets (Mansouri et al. 2018)
Structure (SMILES),boiling point [°C],ready biodegradability,melting point [°C],log10 vapour pressure (mmHg),log10 Koc (L/kg),log10 Henry constant (atm·m³/mol),log10 Koa,log10 biodegradation half-life (days)
FC(F)(Br)C(F)(F)C(F)(F)C(F)(F)C(F)(F)C(F)(F)Br,142,,,,,,,
O=C(O)C1CC=CCC1C(=O)O (centres undefined),,not readily biodegradable,,,,,,
c1ccc(C2CCCC2)cc1,219,,,,,,,
Brc1c(Br)c(Br)c(Oc2c(Br)c(Br)c(Br)c(Br)c2Br)c(Br)c1Br,530,not readily biodegradable,295,,,,,
CC(C)CCCCCOC(=O)C(C)Oc1ccc(Cl)cc1Cl (centres undefined),,,-37,-5.47,,,,
CC(C)(C)c1cc(-c2ccccc2)cc(C(C)(C)C)c1O,,not readily biodegradable,,,,,,
CCOP(=S)(OCC)SCSCC,,,,-3.2,2.7,,,
c1ccc2cc3ccccc3cc2c1,340,not readily biodegradable,215,-5.19,4.31,-4.25,7.55,2.09
CCCCCCCCCCCCCCCCCC(=O)OCCOC(=O)CCCCCCCCCCCCCCCCC,,readily biodegradable,79,,,,,
COc1cc(Cl)ccc1N,260,,52,,,,,
O=NN1CCOCC1,225,,29,,,,,
C[C@@H]1C[C@@H]([C@H](O)CC2CC(=O)NC(=O)C2)C(=O)[C@@H](C)C1,,readily biodegradable,119,,,,,
O=C1C=CC(=O)C=C1,,,116,-1.05,,,,
CC#CC,26.9,not readily biodegradable,-32.3,2.85,,,,
CCCCCCCCCCCCCC,254,readily biodegradable,5.8,-1.94,,,,1.36
OCCN1CCOCC1,227,readily biodegradable,-1.6,,,,,
C=C(C)c1ccccc1C,175,,,,,,,
NS(=O)(=O)c1cc2c(cc1Cl)CN(C1CCCCC1)C2=O,,,267,,,,,
"CC(C)(C)[C@@H](O)[C@@H](Cc1ccc(Cl)cc1)n1cncn1 (single isomer, unassigned)",,,166,-8.12,2.7,,,

Structure (SMILES),boiling point [°C],ready biodegradability,melting point [°C],log10 vapour pressure (mmHg),log10 Koc (L/kg),log10 Henry constant (atm·m³/mol),log10 Koa,log10 biodegradation half-life (days)
CC(CCl)OC(C)CCl (centres undefined),187,not readily biodegradable,-97,-0.252,1.67,,,
CSC(C)(C)C=NO,210,,21,,,,,
Oc1ccc(Cl)cc1Cc1cc(Cl)ccc1O,,not readily biodegradable,178,-10,,,,
C=CC(=O)CC,103,,,,,,,
COc1cc(C(=O)N2CCOCC2)cc(OC)c1OC,,,121,,,,,
OC1c2ccccc2Oc2ccccc21,,,128,,,,,
CC(O)c1ccco1 (centres undefined),162,,,,,,,
Cc1[nH]c(C)c(C)c1C,,,111,,,,,
CCCC(=O)Cl,102,,-89,,,,,
C=CCC1(CC=C)C(=O)NC(=O)NC1=O,,,172,,,,,
C#CC(=O)O,,,9,,,,,
O=S(=O)(O)C(F)(F)C(F)(F)C(F)(F)C(F)(F)C(F)(F)C(F)(F)F,238,,,,,,,
O=C(CCl)c1ccc(Cl)cc1,270,,102,,,,,
CS,5.9,readily biodegradable,-123,3.18,,,,
CCOC(=O)CCCCCC(=O)O,,,10,,,,,
CC=C(CC)CC,96,,,1.72,,,,
C[C@]1(C(=O)O)CCC[C@]2(C)c3cc(O)ccc3CC[C@@H]12,,,194,,,,,
CCc1cccc(CC)c1N,236,,3.5,-2.42,,,,
O=CC=Cc1ccccc1,246,,-7.5,-1.54,,,,

Structure (SMILES),boiling point [°C],ready biodegradability,melting point [°C],log10 vapour pressure (mmHg),log10 Koc (L/kg),log10 Henry constant (atm·m³/mol),log10 Koa,log10 biodegradation half-life (days)
CCCCC(C)(C)C,,,-121,1.53,,,,0.602
FC(F)C(F)F,-19.9,,-89,,,,,
CN(C)c1ccc(C(O)(c2ccccc2)c2ccc(N(C)C)cc2)cc1,,,113,,,,,
CCCCCCCCCCOc1c(OC)cc(C(N)=O)cc1OC,,,122,,,,,
O=C(CCCN1CC=C(n2c(=O)[nH]c3ccccc32)CC1)c1ccc(F)cc1,,,146,,,,,
CC(F)F,-24.9,,-117,3.66,,-1.69,,
C=CCn1c(N)cc(=O)n(CC)c1=O,,,143,,,,,
CC(C)C(C)O (centres undefined),112,,,0.961,,,,
CCC(C)CCC(C)CC (centres undefined),161,,,,,,,
CC[C@H]1CN2CCc3cc(OC)c(OC)cc3[C@@H]2C[C@@H]1C[C@H]1NCCc2cc(OC)c(OC)cc21,,,74,,,,,
C1=CCCC1,44.2,readily biodegradable,-135,2.58,,,,
O=C(Cl)CCC(=O)Cl,193,,20,-0.432,,,,
CCc1ssc(=O)c1-c1ccccc1,,,82,,,,,
Cc1c(C(C)C)c(=O)n(-c2ccccc2)n1C,,,103,,,,,
[Se]=C=[Se],126,,-45.5,,,,,
CC=C(C)C(C)C,,,,1.83,,,,
CCOC(=O)c1ccc(OC)c(OC)c1,296,,43.5,,,,,
COc1ccc2c(c1)c(CC(=O)OCC(=O)O)c(C)n2C(=O)c1ccc(Cl)cc1,,,152,,,,,
